Laboratory results taken from ChEMBL document CHEMBL1201862, “PubChem BioAssay data set” (2004).
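A five-concentration, 48-hour dose response in 96-well plates underlies each endpoint, interpolated linearly between surrounding concentrations. GI50 is the concentration that inhibits growth by half.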 Active and inactive are the calls of the source. Cut-off read from the data, not from the text of the source: active = GI50 up to about 1.1 µM and inactive = higher.

Columns and labels:
Experiment in all cases: inhibition of tumour cell growth, NCI panel, 48 h
TK-10 = tested on: TK-10
A549 = tested on: A549
K562 = tested on: K562
M14 = tested on: M14
SF-295 = tested on: SF-295
SK-MEL-28 = tested on: SK-MEL-28
786-0 = tested on: 786-0
SN12C = tested on: SN12C
OVCAR-4 = tested on: OVCAR-4
SNB-19 = tested on: SNB-19
UO-31 = tested on: UO-31
HOP-92 = tested on: HOP-92
MOLT-4 = tested on: MOLT-4
MDA-N = tested on: MDA-N
T47D = tested on: T47D
SK-MEL-2 = tested on: SK-MEL-2
SF-539 = tested on: SF-539
MCF7 = tested on: MCF7
HL-60 = tested on: HL-60

## O=[N+]([O-])c1ccc(/N=N/c2c(O)ccc3cc(S(=O)(=O)O)cc(S(=O)(=O)O)c23)cc1
TK-10
  GI50: > 100 µM (inactive)
A549
  GI50: > 100 µM (inactive)
K562
  GI50: > 100 µM (inactive)
M14
  GI50: > 100 µM (inactive)
SF-295
  GI50: > 100 µM (inactive)
SK-MEL-28
  GI50: > 100 µM (inactive)
786-0
  GI50: > 100 µM (inactive)
SN12C
  GI50: > 100 µM (inactive)
OVCAR-4
  GI50: > 100 µM (inactive)
SNB-19
  GI50: > 100 µM (inactive)
UO-31
  GI50: > 100 µM (inactive)
HOP-92
  GI50: > 100 µM (inactive)
MOLT-4
  GI50: > 100 µM (inactive)
MDA-N
  GI50: > 100 µM (inactive)
T47D
  GI50: > 100 µM (inactive)
SK-MEL-2
  GI50: > 100 µM (inactive)

## CN(C)c1c(C2OC(CO)C(O)C2O)c(=O)c1=O (stereo unspecified)
TK-10
  GI50: > 100 µM (inactive)
A549
  GI50: > 100 µM (inactive)
K562
  GI50: > 100 µM (inactive)
M14
  GI50: > 100 µM (inactive)
SF-539
  GI50: < 0.01 µM (active)
SK-MEL-28
  GI50: > 100 µM (inactive)
786-0
  GI50: > 100 µM (inactive)
SN12C
  GI50: > 100 µM (inactive)
OVCAR-4
  GI50: > 100 µM (inactive)
SNB-19
  GI50: > 100 µM (inactive)
UO-31
  GI50: > 100 µM (inactive)
HOP-92
  GI50: > 100 µM (inactive)
MOLT-4
  GI50: > 100 µM (inactive)
MDA-N
  GI50: > 100 µM (inactive)
T47D
  GI50: > 100 µM (inactive)
SK-MEL-2
  GI50: > 100 µM (inactive)

## NCCCNc1ccc2c3c(nn2CCNCCO)-c2c(O)ccc(O)c2C(=O)c13
TK-10
  GI50: 4.2 µM (inactive)
M14
  GI50: 3.2 µM (inactive)
SF-295
  GI50: 0.889 µM (active)
786-0
  GI50: 2.38 µM (inactive)
OVCAR-4
  GI50: 3.93 µM (inactive)
SNB-19
  GI50: 0.354 µM (active)
MCF7
  GI50: 0.418 µM (active)
MOLT-4
  GI50: 0.21 µM (active)
MDA-N
  GI50: 2.75 µM (inactive)
T47D
  GI50: 2.18 µM (inactive)

## COc1cccc(N2C(=O)C3c4[nH]c5ccc(C)cc5c4C4CCC(C)CC4C3C2=O)c1 (stereo unspecified)
TK-10
  GI50: 36.1 µM (inactive)
A549
  GI50: > 100 µM (inactive)
K562
  GI50: 30.3 µM (inactive)
M14
  GI50: > 100 µM (inactive)
SF-295
  GI50: 35 µM (inactive)
SF-539
  GI50: 57.5 µM (inactive)
SK-MEL-28
  GI50: > 100 µM (inactive)
786-0
  GI50: 26.5 µM (inactive)
SN12C
  GI50: > 100 µM (inactive)
SNB-19
  GI50: 73.3 µM (inactive)
UO-31
  GI50: > 100 µM (inactive)
HOP-92
  GI50: 34 µM (inactive)
MCF7
  GI50: > 100 µM (inactive)
MOLT-4
  GI50: > 10 µM (inactive)
MDA-N
  GI50: > 100 µM (inactive)
HL-60
  GI50: 10.6 µM (inactive)
SK-MEL-2
  GI50: 24.5 µM (inactive)

## O=[N+]([O-])c1cc(Cl)cc2cc(Cl)cnc12
TK-10
  GI50: > 100 µM (inactive)
A549
  GI50: > 100 µM (inactive)
K562
  GI50: > 100 µM (inactive)
M14
  GI50: > 100 µM (inactive)
SF-295
  GI50: > 100 µM (inactive)
SF-539
  GI50: > 100 µM (inactive)
SK-MEL-28
  GI50: > 100 µM (inactive)
786-0
  GI50: > 100 µM (inactive)
SN12C
  GI50: > 100 µM (inactive)
OVCAR-4
  GI50: 35.7 µM (inactive)
SNB-19
  GI50: > 100 µM (inactive)
UO-31
  GI50: > 100 µM (inactive)
HOP-92
  GI50: > 100 µM (inactive)
MOLT-4
  GI50: > 100 µM (inactive)
T47D
  GI50: 16.4 µM (inactive)
HL-60
  GI50: 62.4 µM (inactive)

## Oc1cc(CF)nc(S)n1
TK-10
  GI50: > 100 µM (inactive)
A549
  GI50: > 100 µM (inactive)
K562
  GI50: > 100 µM (inactive)
M14
  GI50: > 100 µM (inactive)
SF-295
  GI50: > 100 µM (inactive)
SK-MEL-28
  GI50: > 100 µM (inactive)
786-0
  GI50: > 100 µM (inactive)
SN12C
  GI50: > 100 µM (inactive)
OVCAR-4
  GI50: > 100 µM (inactive)
SNB-19
  GI50: > 100 µM (inactive)
UO-31
  GI50: > 100 µM (inactive)
HOP-92
  GI50: > 100 µM (inactive)
MOLT-4
  GI50: > 100 µM (inactive)
MDA-N
  GI50: > 100 µM (inactive)
T47D
  GI50: > 100 µM (inactive)

## O=C(O)c1cc(-c2ccc(-c3ccccc3)cc2)nc2cc3ccccc3cc12
TK-10
  GI50: 58.2 µM (inactive)
A549
  GI50: 19.8 µM (inactive)
K562
  GI50: 14.2 µM (inactive)
M14
  GI50: > 100 µM (inactive)
SF-295
  GI50: 34.8 µM (inactive)
SF-539
  GI50: 31.2 µM (inactive)
SK-MEL-28
  GI50: 87.5 µM (inactive)
786-0
  GI50: 25.9 µM (inactive)
SN12C
  GI50: 61.9 µM (inactive)
OVCAR-4
  GI50: 29.4 µM (inactive)
SNB-19
  GI50: 35.6 µM (inactive)
UO-31
  GI50: 61.9 µM (inactive)
HOP-92
  GI50: 28.2 µM (inactive)
MCF7
  GI50: > 100 µM (inactive)
MOLT-4
  GI50: 11.6 µM (inactive)
T47D
  GI50: 49.5 µM (inactive)
HL-60
  GI50: 19.1 µM (inactive)
SK-MEL-2
  GI50: 82 µM (inactive)

## Cc1c(S(=O)(=O)N/C(=N\O)Nc2ccc(Cl)cc2)sc2ccc(Cl)cc12
TK-10
  GI50: 16.9 µM (inactive)
A549
  GI50: 16.4 µM (inactive)
K562
  GI50: 31 µM (inactive)
M14
  GI50: 16.9 µM (inactive)
SF-295
  GI50: 17.6 µM (inactive)
SF-539
  GI50: 21.5 µM (inactive)
SK-MEL-28
  GI50: 16.4 µM (inactive)
786-0
  GI50: 17.5 µM (inactive)
SN12C
  GI50: 20.3 µM (inactive)
OVCAR-4
  GI50: 16.9 µM (inactive)
SNB-19
  GI50: 18.2 µM (inactive)
UO-31
  GI50: 35.8 µM (inactive)
HOP-92
  GI50: 14.6 µM (inactive)
MOLT-4
  GI50: 27.2 µM (inactive)
MDA-N
  GI50: 18.2 µM (inactive)
T47D
  GI50: 19 µM (inactive)
HL-60
  GI50: 19.3 µM (inactive)
SK-MEL-2
  GI50: 18.7 µM (inactive)

## COc1ccc(/C=C2\CCC(CNc3ccc(S(N)(=O)=O)cc3)C2=O)cc1 (stereo unspecified)
TK-10
  GI50: 14.3 µM (inactive)
A549
  GI50: > 82.8 µM (inactive)
K562
  GI50: 1.51 µM (inactive)
M14
  GI50: 15.5 µM (inactive)
SF-295
  GI50: > 67.3 µM (inactive)
SF-539
  GI50: 25.7 µM (inactive)
SK-MEL-28
  GI50: 16.7 µM (inactive)
786-0
  GI50: 4.9 µM (inactive)
SN12C
  GI50: 18.6 µM (inactive)
OVCAR-4
  GI50: 31.6 µM (inactive)
SNB-19
  GI50: 32 µM (inactive)
UO-31
  GI50: 5.71 µM (inactive)
HOP-92
  GI50: 8.53 µM (inactive)
MCF7
  GI50: 1.74 µM (inactive)
MOLT-4
  GI50: 7.69 µM (inactive)
T47D
  GI50: 17 µM (inactive)
HL-60
  GI50: 2.15 µM (inactive)
SK-MEL-2
  GI50: 75.7 µM (inactive)

## Cc1ccc(S(=O)(=O)n2c3ccc(Br)cc3c3nc4ccccc4nc32)cc1
TK-10
  GI50: > 100 µM (inactive)
A549
  GI50: > 100 µM (inactive)
K562
  GI50: > 100 µM (inactive)
M14
  GI50: > 100 µM (inactive)
SF-295
  GI50: > 100 µM (inactive)
SK-MEL-28
  GI50: > 100 µM (inactive)
786-0
  GI50: > 100 µM (inactive)
SN12C
  GI50: > 100 µM (inactive)
OVCAR-4
  GI50: 72.8 µM (inactive)
SNB-19
  GI50: > 100 µM (inactive)
UO-31
  GI50: > 100 µM (inactive)
HOP-92
  GI50: > 100 µM (inactive)
MOLT-4
  GI50: > 100 µM (inactive)
MDA-N
  GI50: > 100 µM (inactive)
T47D
  GI50: > 100 µM (inactive)
SK-MEL-2
  GI50: > 100 µM (inactive)

## COc1cc(C2SCC(=O)N2c2ccccn2)cc(OC)c1OC (stereo unspecified)
TK-10
  GI50: > 100 µM (inactive)
A549
  GI50: > 100 µM (inactive)
K562
  GI50: 48.4 µM (inactive)
M14
  GI50: > 100 µM (inactive)
SF-295
  GI50: 81.1 µM (inactive)
SF-539
  GI50: 65 µM (inactive)
SK-MEL-28
  GI50: > 100 µM (inactive)
786-0
  GI50: > 100 µM (inactive)
SN12C
  GI50: > 100 µM (inactive)
OVCAR-4
  GI50: > 100 µM (inactive)
SNB-19
  GI50: > 100 µM (inactive)
UO-31
  GI50: > 100 µM (inactive)
HOP-92
  GI50: 14.2 µM (inactive)
MCF7
  GI50: 49.2 µM (inactive)
MOLT-4
  GI50: > 100 µM (inactive)
MDA-N
  GI50: 19 µM (inactive)
HL-60
  GI50: 58.7 µM (inactive)
SK-MEL-2
  GI50: > 100 µM (inactive)

## CCOC(=O)c1c2c(n(-c3ccc(C)cc3)c1C)-c1ccccc1C(=O)C2(C(=O)OCC)C(=O)OCC
TK-10
  GI50: 59.2 µM (inactive)
A549
  GI50: 30.7 µM (inactive)
K562
  GI50: 14.5 µM (inactive)
M14
  GI50: 60.3 µM (inactive)
SF-295
  GI50: 37.9 µM (inactive)
SF-539
  GI50: 35.8 µM (inactive)
SK-MEL-28
  GI50: 27.3 µM (inactive)
786-0
  GI50: 50.6 µM (inactive)
SN12C
  GI50: 34.4 µM (inactive)
OVCAR-4
  GI50: 30.8 µM (inactive)
SNB-19
  GI50: > 92.7 µM (inactive)
UO-31
  GI50: 23.1 µM (inactive)
HOP-92
  GI50: 27.6 µM (inactive)
MCF7
  GI50: 25.9 µM (inactive)
MOLT-4
  GI50: 1.71 µM (inactive)
T47D
  GI50: 20.7 µM (inactive)
HL-60
  GI50: 6.34 µM (inactive)
SK-MEL-2
  GI50: 36.3 µM (inactive)
